Source: PubChem BioAssay AID1996
Values after ≈ are worked out from the molar mass of the structure shown.

Conditions: buffer; pH 7.4; 200.0 µM

| Structure (SMILES) | solubility kinetic |
| --- | --- |
| CCCC1(c2ccccc2)NC(=O)N(CC(=O)Nc2ccc3c(c2)OCCO3)C1=O (centres undefined) | 36 µg/mL (≈ 87.9 µM) |
| Fc1ccc(CNc2nc(-c3cccnc3)nc3ccccc23)cc1 | 5.6 µg/mL (≈ 17 µM) |
| CN(C(=O)CSc1cc(Cl)ccc1Cl)C1CCS(=O)(=O)C1 (centres undefined) | 53.7 µg/mL (≈ 146 µM) |
| C=CCn1c(O)c(C(CC)=Nc2cccc(C(=O)O)c2)c(=O)[nH]c1=O | > 51.5 µg/mL |
| CCCCCCC(=O)N(O)C1CC(=O)N(c2ccc(F)cc2)C1=O (centres undefined) | > 50.5 µg/mL |
| Cc1ccc2oc(=O)n(Cc3ccc(F)cc3)c2c1 | 2 µg/mL (≈ 7.77 µM) |
| Cc1ccc(CNC(=S)Nc2cc(C)ccc2OC(F)F)cc1 | 4.7 µg/mL (≈ 14 µM) |
| CN(Cc1ccccc1)S(=O)(=O)c1cn(C)cn1 | > 39.8 µg/mL |
| CCN(CC)C(=O)CN1C(=O)NC2(CCc3ccccc3C2)C1=O (centres undefined) | > 49.4 µg/mL |
| C#CCOC(=O)Nc1cnccc1C(F)(F)F | > 36.6 µg/mL |
| COc1ccc(CCNC(=O)c2csc3c2CCCC3)cc1OC | > 51.8 µg/mL |
| CNCCCN1c2ccccc2CCc2ccccc21.Cl | > 45.4 µg/mL |
| CN1C(=O)C(=O)/C(=C(/O)c2ccccc2)C1c1ccccc1 (centres undefined) | > 44 µg/mL |
| Cc1cc(C)c(C(=O)N2CCC3(CC2)OCCO3)c(C)c1 | > 43.4 µg/mL |
| Cc1ccc(-c2noc(CN(C)C(=O)c3ccoc3C)n2)cc1 | 34.4 µg/mL (≈ 110 µM) |
| O=C(CNC(=O)OCc1ccccc1)Nc1ccc(F)cc1 | 10.3 µg/mL (≈ 34.1 µM) |
| Cc1c(C=O)c2ccccn2c1C(=O)c1ccccc1Cl | < 0.6 µg/mL |
| COc1ccc(-n2c(C)c(C(=O)O)c3cc(OC)c4ccccc4c32)cc1 | < 0.8 µg/mL |
| Cc1c(C)c2ccc(OCC(=O)N3CCN(Cc4ccccc4)CC3)cc2oc1=O.Cl | 2.5 µg/mL |
| CCN1CCN(c2oc(-c3ccco3)nc2C#N)CC1 | 35.9 µg/mL (≈ 132 µM) |

| Structure (SMILES) | solubility kinetic |
| --- | --- |
| O=C(CCl)Nc1c[nH]c(=O)[nH]c1=O | > 30.5 µg/mL |
| O=C(COc1ccccc1[N+](=O)[O-])NCCC1=CCCCC1 | 31.8 µg/mL (≈ 104 µM) |
| Cc1ccccc1NS(=O)(=O)c1cccc2nsnc12 | > 45.8 µg/mL |
| CCN(Cc1nc(-c2ccc(OC)cc2)no1)C(=O)c1ccoc1C | 41.1 µg/mL (≈ 120 µM) |
| Cc1nc(Nc2ccccc2)sc1C(=O)c1ccc(F)cc1 | 2.4 µg/mL (≈ 7.68 µM) |
| COc1ccc(C(=O)NCC2CCCCC2)cc1S(=O)(=O)N1CCOCC1 | > 59.5 µg/mL |
| CCc1ccc2nc(Nc3ncc(C(C)=O)c(C)n3)nc(C)c2c1 | 6.9 µg/mL (≈ 21.5 µM) |
| CCS(=O)(=O)N1CCC(C(=O)NCc2ccc(OC)cc2)CC1 | > 51.1 µg/mL |
| CSCCC(NC(=O)C1CCCC1)c1nnc2ccccn12 (centres undefined) | > 47.8 µg/mL |
| COC(CNC(=O)c1coc2nc3ccccc3nc12)OC | 34.8 µg/mL (≈ 115 µM) |
| Cc1c(NS(=O)(=O)c2ccc(N)cc2)c(=O)n(-c2ccccc2)n1C | > 53.8 µg/mL |
| O=C(/C=C/c1ccc([N+](=O)[O-])cc1)/C=C/c1ccco1 | 3.1 µg/mL (≈ 11.5 µM) |
| CC(=O)NCC(=O)NNC1CC(=O)N(c2cccc(Cl)c2)C1=O (centres undefined) | > 50.8 µg/mL |
| Cc1ccc(OC(C)C(=O)Nc2ccncc2)cc1C (centres undefined) | 34 µg/mL (≈ 126 µM) |
| Cc1ccn2cc(-c3cc4ccccc4oc3=O)nc2c1 | 3.1 µg/mL (≈ 11.2 µM) |
| CNC(=O)CCc1ccc(OC)cc1 | > 29 µg/mL |
| Cn1cc(S(=O)(=O)N2CCCC(C(=O)O)C2)cn1 (centres undefined) | > 41 µg/mL |
| COc1ccc(C(C)=O)cc1COC(=O)CNC(=O)C1CCCCC1 | > 52.1 µg/mL |
| CC(CN1CCN(Cc2ccccc2)CC1)c1ccccc1.O=C(O)C(=O)O (centres undefined) | 7.2 µg/mL |
| Cc1ccc(N2C(=O)CC(Sc3ncccn3)C2=O)cc1C (centres undefined) | 27.7 µg/mL (≈ 88.4 µM) |

| Structure (SMILES) | solubility kinetic |
| --- | --- |
| Nc1ncncc1-c1ccc(Cl)cc1 | > 30.8 µg/mL |
| CC(NC(=O)CCC(=O)c1ccc(F)cc1)C1CC2CCC1C2 (centres undefined) | 12.5 µg/mL (≈ 39.4 µM) |
| O=C(CSc1ccc(-c2ccncc2)nn1)N1CCCC1 | > 45.1 µg/mL |
| O=C(O)Cc1ccc(NCc2ccccc2Cl)cc1 | 28 µg/mL (≈ 102 µM) |
| CCc1cnccc1CCC(=O)Nc1ccccc1C | 35.4 µg/mL (≈ 132 µM) |
| CN(Cc1ccccc1)S(=O)(=O)c1ccc(NC(=O)c2ccccc2C(=O)O)cc1 | 61.7 µg/mL (≈ 145 µM) |
| Cc1cc([N+](=O)[O-])ccc1NCc1ccc2c(c1)OCCO2 | 10.8 µg/mL (≈ 36 µM) |
| Nc1ccccc1C#Cc1ccc([N+](=O)[O-])cc1 | 1.1 µg/mL (≈ 4.62 µM) |
| Cc1ccc(CN2CCN(c3cccc4[nH]ccc34)CC2)cc1 | 41.2 µg/mL (≈ 135 µM) |
| CCOC(=O)C(Nc1ccc2ccccc2c1)C(=O)OCC | > 45.2 µg/mL |
| COc1ccc(S(=O)(=O)Nc2cccnc2)c(Cl)c1Cl | 21.5 µg/mL (≈ 64.5 µM) |
| COc1ccccc1-n1ccnc(SCC(=O)NC2CCCC2)c1=O | > 53.9 µg/mL |
| O=C(c1ccco1)N1CCN(C2c3ccccc3-c3ccccc32)CC1 | 1 µg/mL (≈ 2.9 µM) |
| COc1ccccc1C(=O)Nc1ccccc1N1CCCCC1 | 1 µg/mL (≈ 3.22 µM) |
| NC(=O)CN1CCN(c2cccc(Cl)c2)CC1 | 33.9 µg/mL (≈ 134 µM) |
| COc1ccc(CNC(=O)COC(=O)c2ccc3ccccc3n2)cc1 | 16.3 µg/mL (≈ 46.5 µM) |
| N#Cc1ccccc1NC(=O)COC(=O)c1ccc(F)cc1F | 11.1 µg/mL (≈ 35.1 µM) |
| CC(=O)c1ccc(NC(=O)c2noc(C)c2[N+](=O)[O-])cc1 | 18.6 µg/mL (≈ 64.3 µM) |
| C=CCOC(=O)C1=C(C)NC(C)=C(C(=O)OCC=C)C1c1ccco1 | 4.5 µg/mL (≈ 13.1 µM) |
